# Patent US11370761B2, “Voltage-dependent T-type calcium channel inhibitor” (Nippon Chemiphar Co., Ltd., priority 2017, dated 2022)
# Where a name gives a salt, the structure may show the parent alone.
# Molecular target: T1, human Cav3.2 channel (Homo sapiens, UniProt O95180)
# T1 construct: expressed in transfected cells
# Experiment: Intracellular calcium concentration measurement in human Cav3.2 channel expressing stable cell line (Pharmacological Test 1)
# Type: cell-based
# Conditions: HEK293 cells stably expressing human Cav3.2, Fluo-4 AM fluorescence, KCl stimulation; read-out: Cav3.2 channel inhibitory action
# Description: (1) Construction of Human Cav3.2 Channel Expressing Stable Cell Line
# A sequence in which a HindIII site and a kozak sequence (GCCACC) was provided on a 5′ side of a human Cav3.2 channel open reading frame (ORF) gene and a KpnI site was provided on a 3′ side thereof was incorporated into pcDNA3.1(+) (Thermo Fisher Scientific #V790-20), and the resultant was transfected into a HEK293 cell (ATCC No. CRL-1573) according to a protocol of FuGENE (registered trademark) HD Transfection Reagent (Promega #E2311).
# (2) Method of Measuring Intracellular Calcium Concentration
# The human Cav3.2 channel expressing stable cell line prepared by the test method (1) was seeded in a 96-well plate using a Dulbecco's modified Eagle's medium (DMEM medium) containing 10% fetal bovine serum (FBS), followed by culturing 37° C. for 48 hours under a 5% CO2 condition. Thereafter, the medium was removed, and each well washed with an A buffer was treated with 80 μL of a fluorescent dye solution containing a liquid mixture of 22 μg of a calcium fluorescent indicator Fluo-4 AM (Dojindo Molecular Technologies, Inc., #F311), 20 μL of dimethyl sulfoxide (DMSO), 1 μL of 10% Pluronic F-127 (Thermo Fisher Scientific #P6866), and 4 mL of the A buffer. After being left to stand for 45 minutes at room temperature under a light shielding condition, the cells were washed with a B buffer. In DMSO having the same final concentration as the test compound as a negative control, and the test compound dissolved in DMSO to have a final concentration of 0.1%, each test compound concentration solution containing the B buffer was added to each well. The cells were left to stand for additional 15 minutes at room temperature under a light shielding condition, and were measured using microplate reader EnVision (PerkinElmer Co., Ltd.) by the following method. First, after measuring background fluorescence in each well, an ionophore was added, and baseline fluorescence was measured. Thereafter, B buffer containing added KCl at a concentration of 83.8 mM was added to each well, and an increase in fluorescence due to calcium influx caused by the stimulation was measured for 10 seconds. Inhibition percentage was calculated from the maximum fluorescence increase value from the baseline, and an IC50 value was calculated by plotting a logarithmic value of the test compound concentration and inhibition activity. The measurement was performed by observing fluorescence of 510 nm emitted when the cells were irradiated with excitation light of 485 nm.
# A buffer: 140 mM NaCl, 5 mM KCl, 1 mM MgCl2, 0.5 mM CaCl2, 10 mM Glucose, 10 mM HEPES, pH 7.3
# B buffer: potassium equilibrium potential: −92 mV
# T1 sequence (O95180 whole entry): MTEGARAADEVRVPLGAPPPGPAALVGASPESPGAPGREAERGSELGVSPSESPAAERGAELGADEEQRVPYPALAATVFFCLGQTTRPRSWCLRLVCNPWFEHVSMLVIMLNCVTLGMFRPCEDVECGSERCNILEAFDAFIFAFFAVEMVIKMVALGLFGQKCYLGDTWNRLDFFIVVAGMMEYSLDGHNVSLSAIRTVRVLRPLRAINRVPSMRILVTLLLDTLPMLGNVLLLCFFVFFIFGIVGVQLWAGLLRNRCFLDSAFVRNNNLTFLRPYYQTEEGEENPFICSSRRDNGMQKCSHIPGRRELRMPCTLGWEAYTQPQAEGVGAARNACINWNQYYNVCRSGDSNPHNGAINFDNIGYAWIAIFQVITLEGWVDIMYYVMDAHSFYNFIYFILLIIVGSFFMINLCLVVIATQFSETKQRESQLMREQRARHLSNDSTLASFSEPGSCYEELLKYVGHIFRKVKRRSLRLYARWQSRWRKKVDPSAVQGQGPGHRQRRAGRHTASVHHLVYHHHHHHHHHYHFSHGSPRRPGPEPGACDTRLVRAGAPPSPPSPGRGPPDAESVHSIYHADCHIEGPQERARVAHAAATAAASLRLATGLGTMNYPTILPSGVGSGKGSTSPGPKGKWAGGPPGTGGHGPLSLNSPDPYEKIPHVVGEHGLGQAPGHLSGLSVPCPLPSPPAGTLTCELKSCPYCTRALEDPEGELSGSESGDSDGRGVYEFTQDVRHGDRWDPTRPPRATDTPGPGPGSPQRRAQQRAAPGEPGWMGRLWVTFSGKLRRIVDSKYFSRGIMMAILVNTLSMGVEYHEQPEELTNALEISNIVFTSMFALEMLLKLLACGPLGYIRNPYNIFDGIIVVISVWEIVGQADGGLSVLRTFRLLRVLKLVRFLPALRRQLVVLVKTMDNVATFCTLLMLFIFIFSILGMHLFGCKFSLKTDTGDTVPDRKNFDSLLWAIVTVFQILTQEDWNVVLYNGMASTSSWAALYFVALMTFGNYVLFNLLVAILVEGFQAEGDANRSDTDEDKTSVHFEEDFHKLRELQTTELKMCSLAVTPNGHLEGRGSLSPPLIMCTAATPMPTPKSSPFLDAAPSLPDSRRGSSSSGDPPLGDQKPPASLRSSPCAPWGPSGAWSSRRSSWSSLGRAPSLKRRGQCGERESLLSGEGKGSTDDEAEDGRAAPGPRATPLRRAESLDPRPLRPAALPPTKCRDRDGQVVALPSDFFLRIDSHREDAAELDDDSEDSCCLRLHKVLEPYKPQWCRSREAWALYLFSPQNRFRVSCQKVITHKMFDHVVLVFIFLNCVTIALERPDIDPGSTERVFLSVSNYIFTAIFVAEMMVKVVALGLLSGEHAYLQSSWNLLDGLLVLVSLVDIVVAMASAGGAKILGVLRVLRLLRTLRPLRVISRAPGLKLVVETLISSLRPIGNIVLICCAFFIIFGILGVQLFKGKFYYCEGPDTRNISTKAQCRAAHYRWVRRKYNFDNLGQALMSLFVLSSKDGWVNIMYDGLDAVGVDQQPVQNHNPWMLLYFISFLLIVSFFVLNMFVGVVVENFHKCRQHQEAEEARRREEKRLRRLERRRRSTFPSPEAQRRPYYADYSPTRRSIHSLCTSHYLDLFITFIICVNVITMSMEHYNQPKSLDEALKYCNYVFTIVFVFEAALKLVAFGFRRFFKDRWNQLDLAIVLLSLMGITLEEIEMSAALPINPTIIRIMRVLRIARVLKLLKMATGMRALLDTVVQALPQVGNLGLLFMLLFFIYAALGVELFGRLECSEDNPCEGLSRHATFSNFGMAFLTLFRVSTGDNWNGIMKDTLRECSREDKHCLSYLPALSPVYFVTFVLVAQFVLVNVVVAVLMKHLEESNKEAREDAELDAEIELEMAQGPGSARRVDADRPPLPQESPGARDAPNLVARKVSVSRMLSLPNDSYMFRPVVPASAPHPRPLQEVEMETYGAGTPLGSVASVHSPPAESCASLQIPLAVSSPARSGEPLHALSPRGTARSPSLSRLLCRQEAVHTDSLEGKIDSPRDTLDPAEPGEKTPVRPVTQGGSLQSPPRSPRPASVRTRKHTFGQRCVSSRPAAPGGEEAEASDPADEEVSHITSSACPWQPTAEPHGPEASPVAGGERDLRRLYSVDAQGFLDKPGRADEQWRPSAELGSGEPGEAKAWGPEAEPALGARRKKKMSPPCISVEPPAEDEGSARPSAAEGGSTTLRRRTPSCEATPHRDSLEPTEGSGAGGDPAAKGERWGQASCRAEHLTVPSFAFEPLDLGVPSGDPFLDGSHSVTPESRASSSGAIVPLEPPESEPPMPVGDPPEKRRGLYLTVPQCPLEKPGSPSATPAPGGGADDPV
row,SMILES,IC50 [µM]
1,"CC(NC(=O)C1CC1c1nc2ccccc2[nH]1)C(=O)NC1CN(C(=O)OC(C)(C)C)C1 (stereo not drawn) [Example 10, tert-Butyl trans-3-(2-(2-(1H-benzo[d]imidazol-2-yl)cyclopropane-1-carboxamido)propanamido)azetidine-1-carboxylate]",> 10
2,"CC(NC(=O)C1CC1c1nc2ccccc2[nH]1)C(=O)NC1CCN(C(=O)OC(C)(C)C)CC1 (stereo not drawn) [Example 11, tert-Butyl trans-4-(2-(2-(1H-benzo[d]imidazol-2-yl)cyclopropane-1-carboxamido)propanamido)piperidine-1-carboxylate]",1 to 10
3,"CC(NC(=O)C1CC1c1nc2ccccc2[nH]1)C(=O)NC1CCNCC1 (stereo not drawn) [Example 12, Trans-2-(1H-benzo[d]imidazol-2-yl)-N-(1-oxo-1-(piperidin-4-ylamino)propan-2-yl) cyclopropane-1-carboxamide hydrochloride]",1 to 10
4,"CCC(=O)N1CCC(NC(=O)C(C)NC(=O)C2CC2c2nc3ccccc3[nH]2)CC1 (stereo not drawn) [Example 13, Trans-2-(1H-benzo[d]imidazol-2-yl)-N-(1-oxo-1-((1-propionylpiperidin-4-yl)amino)propan-2-yl) cyclopropane-1-carboxamide]",> 10
5,"CC(NC(=O)C1CC1c1nc2ccccc2[nH]1)C(=O)NCc1ccc(C(F)(F)F)nc1 (stereo not drawn) [Example 15, Trans-2-(1H-benzo[d]imidazol-2-yl)-N-(1-oxo-1-(((6-(trifluoromethyl)pyridin-3-yl)methyl)amino)propan-2-yl) cyclopropane-1-carboxamide]",1 to 10
6,"O=C(NC1(C(=O)Nc2ccccc2C(F)(F)F)CC1)[C@H]1C[C@@H]1c1nc2ccccc2[nH]1 [Example 25, 1-((1S, 2S)-2-(1H-Benzo[d]imidazol-2-yl)cyclopropane-1-carboxamido)-N-(2-(trifluoromethyl)phenyl) cyclopropane-1-carboxamide]",1 to 10
7,"CCn1c([C@H]2C[C@@H]2C(=O)NC2(C(=O)Nc3ccc(C(F)(F)F)nc3)CC2)nc2ccccc21 [Example 27, 1-((1S, 2S)-2-(1-Ethyl-1H-benzo[d]imidazol-2-yl)cyclopropane-1-carboxamido)-N-(6-(trifluoromethyl)pyridin-3-yl) cyclopropane-1-carboxamide]",≤ 0.1
8,"O=C(NC1(C(=O)Nc2ccc(C(F)(F)F)cc2F)CC1)[C@H]1C[C@@H]1c1nc2ccccc2[nH]1 [Example 28, 1-((1S, 2S)-2-(1H-Benzo[d]imidazol-2-yl)cyclopropane-1-carboxamido)-N-(2-fluoro-4-(trifluoromethyl)phenyl) cyclopropane-1-carboxamide]",0.1 to 1
9,"O=C(NC1(C(=O)Nc2ccc(F)c(C(F)(F)F)c2)CC1)[C@H]1C[C@@H]1c1nc2ccccc2[nH]1 [Example 31, 1-((1S, 2S)-2-(1H-Benzo[d]imidazol-2-yl)cyclopropane-1-carboxamido)-N-(4-fluoro-3-(trifluoromethyl)phenyl) cyclopropane-1-carboxamide]",≤ 0.1
10,"O=C(CNC(=O)[C@H]1C[C@@H]1c1nc2ccccc2[nH]1)Nc1cccc(C(F)(F)F)c1 [Example 39, (1S, 2S)-2-(1H-Benzo[d]imidazol-2-yl)-N-(2-oxo-2-((3-(trifluoromethyl)phenyl)amino)ethyl) cyclopropane-1-carboxamide]",≤ 0.1
11,"O=C(NC1(C(=O)Nc2cccc(C(F)(F)F)c2)CC1)[C@H]1C[C@@H]1c1nc2ccccc2n1C1CC1 [Example 40, 1-((1S, 2S)-2-(1-Cyclopropyl-1H-benzo[d]imidazol-2-yl)cyclopropane-1-carboxamido)-N-(3-(trifluoromethyl)phenyl) cyclopropane-1-carboxamide]",≤ 0.1
12,"O=C(NC1(C(=O)Nc2cc(F)cc(C(F)(F)F)c2)CC1)[C@H]1C[C@@H]1c1nc2ccccc2[nH]1 [Example 42, 1-((1S, 2S)-2-(1H-Benzo[d]imidazol-2-yl)cyclopropane-1-carboxamido)-N-(3-fluoro-5-(trifluoromethyl)phenyl) cyclopropane-1-carboxamide]",0.1 to 1
13,"O=C(NC1(C(=O)Nc2cccc(OC(F)(F)F)c2)CC1)[C@H]1C[C@@H]1c1nc2ccccc2[nH]1 [Example 43, 1-((1S, 2S)-2-(1H-Benzo[d]imidazol-2-yl)cyclopropane-1-carboxamido)-N-(3-(trifluoromethoxy)phenyl) cyclopropane-1-carboxamide]",≤ 0.1

# Second part, the molecule after the results:
row,IC50 [µM],SMILES
1,0.1 to 1,"CC(NC(=O)C1CC1c1nc2ccccc2[nH]1)C(=O)NCc1ccc(C(F)(F)F)cc1 (stereo not drawn) [Example 14, Trans-2-(1H-benzo[d]imidazol-2-yl)-N-(1-oxo-1-((4-(trifluoromethyl)benzyl)amino)propan-2-yl) cyclopropane-1-carboxamide]"
2,> 10,"CC(NC(=O)C1CC1c1nc2ccccc2[nH]1)C(=O)Nc1cnccn1 (stereo not drawn) [Example 17, Trans-2-(1H-benzo[d]imidazol-2-yl)-N-(1-oxo-1-(pyrazin-2-ylamino)propan-2-yl) cyclopropane-1-carboxamide]"
3,1 to 10,"O=C(NC1(C(=O)Nc2cncc(C(F)(F)F)c2)CC1)[C@H]1C[C@@H]1c1nc2ccccc2[nH]1 [Example 29, 1-((1S, 2S)-2-(1H-Benzo[d]imidazol-2-yl)cyclopropane-1-carboxamido)-N-(5-(trifluoromethyl)pyridin-3-yl) cyclopropane-1-carboxamide]"
4,> 10,"CC(C)N(C(=O)CNC(=O)[C@H]1C[C@@H]1c1nc2ccccc2[nH]1)c1ccc(C(F)(F)F)nc1 [Example 30, (1S, 2S)-2-(1H-Benzo[d]imidazol-2-yl)-N-(2-(isopropyl (6-(trifluoromethyl)pyridin-3-yl)amino)-2-oxoethyl) cyclopropane-1-carboxamide]"
5,≤ 0.1,"O=C(NC1(C(=O)Nc2ccc(F)c(C(F)(F)F)c2)CC1)[C@H]1C[C@@H]1c1nc2cc(Cl)ccc2[nH]1 [Example 34, 1-((1S, 2S)-2-(5-Chloro-1H-benzo[d]imidazol-2-yl)cyclopropane-1-carboxamido)-N-(4-fluoro-3-(trifluoromethyl)phenyl) cyclopropane-1-carboxamide]"
6,0.1 to 1,"O=C(NC1(C(=O)Nc2cc(Cl)cc(Cl)c2)CC1)[C@H]1C[C@@H]1c1nc2ccccc2[nH]1 [Example 35, 1-((1S, 2S)-2-(1H-Benzo[d]imidazol-2-yl)cyclopropane-1-carboxamido)-N-(3,5-dichlorophenyl) cyclopropane-1-carboxamide]"
7,≤ 0.1,"O=C(NC1(C(=O)Nc2cccc(C(F)(F)F)c2)CCC1)[C@H]1C[C@@H]1c1nc2ccccc2[nH]1 [Example 36, 1-((1S, 2S)-2-(1H-Benzo[d]imidazol-2-yl)cyclopropane-1-carboxamido)-N-(3-(trifluoromethyl)phenyl) cyclobutane-1-carboxamide]"
8,0.1 to 1,"CC(C)C[C@@H](NC(=O)[C@H]1C[C@@H]1c1nc2ccccc2[nH]1)C(=O)Nc1cccc(C(F)(F)F)c1 [Example 37, (1S, 2S)-2-(1H-Benzo[d]imidazol-2-yl)-N—((R)-4-methyl-1-oxo-1-((3-(trifluoromethyl)phenyl)amino)pentan-2-yl) cyclopropane-1-carboxamide]"
9,0.1 to 1,"O=C(NC1(C(=O)Nc2cccc(C(F)(F)F)c2F)CC1)[C@H]1C[C@@H]1c1nc2ccccc2[nH]1 [Example 41, 1-((1S, 2S)-2-(1H-Benzo[d]imidazol-2-yl)cyclopropane-1-carboxamido)-N-(2-fluoro-3-(trifluoromethyl)phenyl) cyclopropane-1-carboxamide]"
